Columns and labels:
Assay type in all cases: cell-based, human
[1] = test system: MDA-MB-435 cells; assay: Immunofluorescent staining for actin localisation (confocal microscopy); conditions: 5 µM, 20 h
Method: To evaluate the effect of compound treatment on cell morphology and stress actin fibres, an immunofluorescence imaging of cells was performed as previously described. MDA-MB-435 cells were seeded on cover slips in petri dishes and allowed to grow for 24 h. After cell growth, cells were treated with the vehicule (control cells) or with JMV5038, compound 5 or 8 at 5 µM for 20 h. Then cells were fixed using Antigenfix for 20 min and permeabilized using 0.2% Triton X-100 for 4 min at room temperature. Actin was stained using a primary human anti-actin antibody (made from mouse) and a secondary Alexa Fluor 568-conjugated goat anti-mouse antibody. Both of them were incubated 1 h at room temperature. Nuclei were counter-stained using Hoechst 33342. Representative images were obtained using a Zeiss LSM 780 inverted confocal microscopy. Confocal fluorescence microscopy was performed on fixed cells under a 543 nm wavelength excitation for AlexaFluor568, and 405 nm for nuclei, and visualised at 620 nm (red) and 450 nm (blue) respectively.
In our previous study, we reported that JMV5038 led to changes in the cell morphology, concomitant with a disruption of the actin network. Morphological changes in MDA-MB-435 cells induced by compounds 5 or 8 were investigated and compared to those induced by JMV5038. For this purpose, fixed and actin immunostained MDA-MB-435 cells were imaged by confocal microscopy (Figure 6). Control cells treated with DMSO (20 h, 5 µM concentration) were spread and the tensile forces of actin stress fibres stretched the cell-adhesive phenotype.

[2] = test system: A549/ATCC; assay: NCI-60 SRB assay, A549/ATCC (NSCLC); conditions: 10 µM, 48 h
Method: (§1) Primary anticancer assay was performed on a panel of 60 human cancer cell lines derived from nine neoplastic diseases, in accordance with the protocol of the Drug Evaluation Branch, National Cancer Institute, Bethesda, Maryland, USA[22]. Cells were incubated with tested compounds at 10 µM for 48 h. The growth percentage was evaluated spectrophotometrically using a protein binding dye, SRB. Results for each tested compound were reported as the percent of growth of treated cells when compared to untreated control cells.
(§2) To better compare the activity profile of these two series of compounds, compounds 5 and 8 were selected and then evaluated towards a panel of sixty cancer cell lines corresponding to nine different cancer types, i.e. leukaemia, melanoma, as well as lung, colon, central nervous system, ovarian, renal, prostate and breast cancers (NCI evaluation). Indeed, it is now well established that the growth inhibitory patterns of anticancer drugs against the NCI-60 cell line panel correlated well with their modes of action. For example, compounds that bind to tubulin have similar growth inhibition patterns regardless of which site on tubulin they bind[30]. […] Compounds were tested using the sulforhodamine B (SRB) assay that provides a direct cell density index. The amount of dye incorporated by the cells increases with the increase of the total protein biomass. Cells were incubated for 48 h with compounds at 10 µM concentration, then cell growth was evaluated spectrophotometrically and presented as the percent of untreated control cells. Values of the most sensitive cell lines were compared to those obtained with JMV5038 (Figure 4, for all data see SI).

[3] = test system: EKVX; assay: NCI-60 SRB assay, EKVX (NSCLC); conditions: 10 µM, 48 h
Method: as §1, §2

[4] = test system: HOP-92; assay: NCI-60 SRB assay, HOP-92 (NSCLC); conditions: 10 µM, 48 h;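 on Mean G% - G%: mean growth across the NCI-60 panel minus this line's growth with positive meaning more sensitive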
Method: as §1, §2

[5] = test system: NCI-H23; assay: NCI-60 SRB assay, NCI-H23 (NSCLC); conditions: 10 µM, 48 h
Method: as §1, §2

[6] = test system: NCI-H460; assay: NCI-60 SRB assay, NCI-H460 (NSCLC); conditions: 10 µM, 48 h
Method: as §1, §2

[7] = test system: NCI-H522; assay: NCI-60 SRB assay, NCI-H522 (NSCLC); conditions: 10 µM, 48 h
Method: as §1, §2

[8] = test system: HCC-2998; assay: NCI-60 SRB assay, HCC-2998 (Colon Cancer); conditions: 10 µM, 48 h;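 on Mean G% - G%: mean growth across the NCI-60 panel minus this line's growth with positive meaning more sensitive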
Method: as §1, §2

[9] = test system: HT29; assay: NCI-60 SRB assay, HT29 (Colon Cancer); conditions: 10 µM, 48 h;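 on Mean G% - G%: mean growth across the NCI-60 panel minus this line's growth with positive meaning more sensitive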
Method: as §1, §2

[10] = test system: SW-620; assay: NCI-60 SRB assay, SW-620 (Colon Cancer); conditions: 10 µM, 48 h
Method: as §1, §2

[11] = test system: SF-268; assay: NCI-60 SRB assay, SF-268 (CNS Cancer); conditions: 10 µM, 48 h
Method: as §1, §2

[12] = test system: SF-539; assay: NCI-60 SRB assay, SF-539 (CNS Cancer); conditions: 10 µM, 48 h
Method: as §1, §2

[13] = test system: SNB-75; assay: NCI-60 SRB assay, SNB-75 (CNS Cancer); conditions: 10 µM, 48 h
Method: as §1, §2

[14] = test system: LOX IMVI; assay: NCI-60 SRB assay, LOX IMVI (Melanoma); conditions: 10 µM, 48 h
Method: as §1, §2

[15] = test system: MALME-3M; assay: NCI-60 SRB assay, MALME-3M (Melanoma); conditions: 10 µM, 48 h
Method: as §1, §2

[16] = test system: MDA-MB-435; assay: NCI-60 SRB assay, MDA-MB-435 (Melanoma); conditions: MDA-MB-435, 10 µM, 48 h, SRB;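 on Mean G% - G%: mean growth across the NCI-60 panel minus this line's growth with positive meaning more sensitive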
Method: as §1, §2

[17] = test system: SK-MEL-2; assay: NCI-60 SRB assay, SK-MEL-2 (Melanoma); conditions: 10 µM, 48 h
Method: as §1, §2

[18] = test system: SK-MEL-5; assay: NCI-60 SRB assay, SK-MEL-5 (Melanoma); conditions: 10 µM, 48 h
Method: as §1, §2

[19] = test system: IGROV1; assay: NCI-60 SRB assay, IGROV1 (Ovarian Cancer); conditions: 10 µM, 48 h
Method: as §1, §2

[20] = test system: OVCAR-3; assay: NCI-60 SRB assay, OVCAR-3 (Ovarian Cancer); conditions: 10 µM, 48 h
Method: as §1, §2

[21] = test system: OVCAR-4; assay: NCI-60 SRB assay, OVCAR-4 (Ovarian Cancer); conditions: 10 µM, 48 h
Method: as §1, §2

[22] = test system: NCI/ADR-RES; assay: NCI-60 SRB assay, NCI/ADR-RES (Ovarian Cancer); conditions: 10 µM, 48 h
Method: as §1, §2

[23] = test system: TK-10; assay: NCI-60 SRB assay, TK-10 (Renal Cancer); conditions: 10 µM, 48 h
Method: as §1, §2

[24] = test system: UO-31; assay: NCI-60 SRB assay, UO-31 (Renal Cancer); conditions: 10 µM, 48 h
Method: as §1, §2

[25] = test system: DU-145; assay: NCI-60 SRB assay, DU-145 (Prostate Cancer); conditions: 10 µM, 48 h
Method: as §1, §2

[26] = test system: MCF7; assay: NCI-60 SRB assay, MCF7 (Breast Cancer); conditions: 10 µM, 48 h
Method: as §1, §2

[27] = test system: MDA-MB-468; assay: NCI-60 SRB assay, MDA-MB-468 (Breast Cancer); conditions: 10 µM, 48 h
Method: as §1, §2

Compound: C[C@@H]1NC(c2csc3ccccc23)=Nc2nc3ccccn3c2C1=O [Compound 8, (4S)-4-methyl-2-benzothiophen-3-yl-3,4-dihydro-5H-pyrido[1’,2’:1,2]imidazo[4,5-d][1,3]diazepin-5-one]
- morphological changes / actin network [1]: disorganisation of the actin cytoskeleton
- Mean G% - G% [2]: 8,10%
- G% ([2]; growth vs untreated control): 66,77%
- Mean G% - G% [3]: 0,63%
- G% ([3]; growth vs untreated control): 74,24%
- Mean G% - G% [4]: 34,61%
- G% ([4]; growth vs untreated control): 40,26%
- Mean G% - G% [5]: 3,92%
- G% ([5]; growth vs untreated control): 70,95%
- Mean G% - G% [6]: -10,32%
- G% ([6]; growth vs untreated control): 85,19%
- Mean G% - G% [7]: -20,45%
- G% ([7]; growth vs untreated control): 95,32%
- Mean G% - G% [8]: -23,19%
- G% ([8]; growth vs untreated control): 98,06%
- Mean G% - G% [9]: -10,58%
- G% ([9]; growth vs untreated control): 85,45%
- Mean G% - G% [10]: -0,70%
- G% ([10]; growth vs untreated control): 75,57%
- Mean G% - G% [11]: 8,82%
- G% ([11]; growth vs untreated control): 66,05%
- Mean G% - G% [12]: -1,87%
- G% ([12]; growth vs untreated control): 76,74%
- Mean G% - G% [13]: 60,36%
- G% ([13]; growth vs untreated control): 14,51%
- Mean G% - G% [14]: -18,67%
- G% ([14]; growth vs untreated control): 93,54%
- Mean G% - G% [15]: -0,21%
- G% ([15]; growth vs untreated control): 75,08%
- Mean G% - G% [16]: -0,17%
- G% ([16]; growth vs untreated control): 75,04%
- Mean G% - G% [17]: -20,08%
- G% ([17]; growth vs untreated control): 94,95%
- Mean G% - G% [18]: 12,92%
- G% ([18]; growth vs untreated control): 61,95%
- Mean G% - G% [19]: 14,89%
- G% ([19]; growth vs untreated control): 59,98%
- Mean G% - G% [20]: -5,26%
- G% ([20]; growth vs untreated control): 80,13%
- Mean G% - G% [21]: 0,79%
- G% ([21]; growth vs untreated control): 74,08%
- Mean G% - G% [22]: -2,84%
- G% ([22]; growth vs untreated control): 77,71%
- Mean G% - G% [23]: -36,86%
- G% ([23]; growth vs untreated control): 111,73%
- Mean G% - G% [24]: 22,87%
- G% ([24]; growth vs untreated control): 52,00%
- Mean G% - G% [25]: 2,24%
- G% ([25]; growth vs untreated control): 72,63%
- Mean G% - G% [26]: 24,29%
- G% ([26]; growth vs untreated control): 50,58%
- Mean G% - G% [27]: 4,18%
- G% ([27]; growth vs untreated control): 70,69%

From publication PMC7170309, “Imidazopyridine-fused [1,3]diazepinones: modulations of positions 2 to 4 and their impacts on the anti-melanoma activity” (Journal of Enzyme Inhibition and Medicinal Chemistry, 2020)
